From patent publication US20090076006A1, “HSP90 INHIBITORS CONTAINING A ZINC BINDING MOIETY” (priority 2007, published 2009)

Tests used:
[1] = target: T1, HSP90 (Homo sapiens, UniProt P07900); experiment: HSP90 assay (chaperone luciferase refolding / competition binding fluorescence polarization); details: Table B does not say which of the two described
T1 construct: purchased Assay Design SPP-776F
Experimental: (a) An In Vitro Assay which Determines the Ability of a Test Compound to Inhibit Hsp90 Chaperone Activity.
The Hsp90 chaperone assay was performed to measure the ability of HSP90 protein to refold the heat-denatured luciferase protein. HSP90 was first incubated with different concentrations of test compounds in denaturation buffer (25 mM Tris, pH7.5, 8 mM MgSO4, 0.01% bovine gamma globulin and 10% glycerol) at room temperature for 30 min. Luciferase protein was added to denaturation mix and incubated at 50° C. for 8 min. The final concentration of HSP90 and luciferase in denaturation mixture were 0.375 μM and 0.125 μM respectively. A 5 μl sample of the denatured mix was diluted into 25 μl of renaturation buffer (25 mM Tris, pH7.5, 8 mM MgSO4, 0.01% bovine gamma globulin and 10% glycerol, 0.5 mM ATP, 2 mM DTT, 5 mM KCl, 0.3 μM HSP70 and 0.15 μM HSP40). The renaturation reaction was incubated at room temperature for 150 min, followed by dilution of 10 μl of the renatured sample into 90 μl of luciferin reagent (Luclite, PerkinElmer Life Science). The mixture was incubated at dark for 5 min before reading the luminescence signal on a TopCount plate reader (PerkinElmer Life Science).
(b) HSP90 Competition Binding (Fluorescence Polarization) Assay.
A fluorescein isothiocyanate (FITC) labeled GM was purchase from InvivoGen (ant-fgl-1). The interaction between HSP90 and labeled GM forms the basis for the fluorescence polarization assay. A free and fast-tumbling FITC labeled GM emits random light with respect to the plane of polarization plane of excited light, resulting in a lower polarization degree (mP) value. When GM is bound to HSP90, the complex tumble slower and the emitted light is polarized, resulting in a higher mP value. This competition binding assay was performed in 96-well plate and with each assay contained 10 and 50 nM of labeled GM and purified HSP90 protein (Assay Design, SPP-776F) respectively. The assay buffer contained 20 mM HEPES (pH 7.3), 50 mM KCl, 1 mM DTT, 50 mM MgCl2, 20 mM Na2MoO4, 0.01% NP40 with 0.1 mg/ml bovine gamma-globulin. Compounds are diluted in DMSO and added to the final assay before labeled GM with concentration range from 20 uM to 2 nM. mP value was determined by BioTek Synergy II with background subtraction after 24 hours of incubation at 4° C.

[2] = system: HDAC (HeLa nuclear extract); experiment: HDAC fluorimetric assay (inhibition of HDAC enzymatic activity); format: biochemical; details: HDAC fluorimetric assay kit
Experimental: (c) An In Vitro Assay which Determines the Ability of a Test Compound to Inhibit HDAC Enzymatic Activity.
HDAC inhibitors were screened using an HDAC fluorimetric assay kit (AK-500, Biomol, Plymouth Meeting, Pa.). Test compounds were dissolved in dimethylsulphoxide (DMSO) to give a 20 mM working stock concentration. Fluorescence was measured on a WALLAC Victor 2 plate reader and reported as relative fluorescence units (RFU). Data were plotted using GraphPad Prism (v4.0a) and IC50's calculated using a sigmoidal dose response curve fitting algorithm. Each assay was setup as follows: Defrosted all kit components and kept on ice until use. Diluted HeLa nuclear extract 1:29 in Assay Buffer (50 mM Tris/Cl, pH 8.0, 137 mM NaCl, 2.7 mM KCl, 1 mM MgCl2). Prepared dilutions of Trichostatin A (TSA, positive control) and tested compounds in assay buffer (5× of final concentration). Diluted Fluor de Lys™ Substrate in assay buffer to 100 uM (50 fold=2× final). Diluted Fluor de Lys™ developer concentrate 20-fold (e.g. 50 μl plus 950 μl Assay Buffer) in cold assay buffer. Second, diluted the 0.2 mM Trichostatin A 100-fold in the 1× Developer (e.g. 10 μl in 1 ml; final Trichostatin A concentration in the 1× Developer=2 μM; final concentration after addition to HDAC/Substrate reaction=1 μM). Added Assay buffer, diluted trichostatin A or test inhibitor to appropriate wells of the microtiter plate. Added diluted HeLa extract or other HDAC sample to all wells except for negative controls. Allowed diluted Fluor de Lys™ Substrate and the samples in the microtiter plate to equilibrate to assay temperature (e.g. 25 or 37° C. Initiated HDAC reactions by adding diluted substrate (25 μl) to each well and mixing thoroughly. Allowed HDAC reactions to proceed for 1 hour and then stopped them by addition of Fluor de Lys™ Developer (50 μl). Incubated plate at room temperature (25° C.) for 10-15 min. Read samples in a microtiter-plate reading fluorimeter capable of excitation at a wavelength in the range 350-380 nm and detection of emitted light in the range 440-460 nm.

For `CCNC(=O)c1noc(-c2cc(Cl)c(O)cc2O)c1-c1ccc(OCCCC(=O)NO)cc1` [Compound 1, 5-(5-chloro-2,4-dihydroxyphenyl)-N-ethyl-4-(4-(4-(hydroxyamino)-4-oxobutoxy)phenyl)isoxazole-3-carboxamide], the IC50 [1] was no more than 100 nM and the IC50 [2] was 100 to 1000 nM.
Work on `CCNC(=O)c1noc(-c2cc(Cl)c(O)cc2O)c1-c1ccc(OCCCCC(=O)NO)cc1` [Compound 2, 5-(5-Chloro-2,4-dihydroxyphenyl)-N-ethyl-4-(4-(5-(hydroxyamino)-5-oxopentyloxy)phenyl)isoxazole-3-carboxamide] yielded an IC50 [1] of no more than 100 nM and an IC50 [2] of 1000 to 10000 nM.
In the case of `CCNC(=O)c1noc(-c2cc(Cl)c(O)cc2O)c1-c1ccc(OCCCCCC(=O)NO)cc1` [Compound 3, 5-(5-Chloro-2,4-dihydroxyphenyl)-N-ethyl-4-(4-(6-(hydroxyamino)-6-oxohexyloxy)phenyl)isoxazole-3-carboxamide], the IC50 [1] is reported as no more than 100 nM and the IC50 [2] is reported as 100 to 1000 nM.
For `CCNC(=O)c1noc(-c2cc(Cl)c(O)cc2O)c1-c1ccc(OCCCCCCC(=O)NO)cc1` [Compound 4, 5-(5-chloro-2,4-dihydroxyphenyl)-N-ethyl-4-(4-(7-(hydroxylamino)-7-oxoheptyloxy)phenyl)isoxazole-3-carboxamide], the IC50 [1] was no more than 100 nM and the IC50 [2] was 100 to 1000 nM.
With `COc1ccc(-c2c(C(=O)NCCC(=O)NO)noc2-c2cc(Cl)c(O)cc2O)cc1` [Compound 5, 5-(5-chloro-2,4-dihydroxyphenyl)-N-(3-(hydroxyl-amino)-3-oxopropyl)-4-(4-methoxyphenyl)isoxazole-3-carboxamide] the IC50 [1] was no more than 100 nM and the IC50 [2] was 1000 to 10000 nM.
In the case of `COc1ccc(-c2c(C(=O)NCCCC(=O)NO)noc2-c2cc(Cl)c(O)cc2O)cc1` [Compound 6, 5-(5-chloro-2,4-dihydroxyphenyl)-N-(4-(hydroxyamino)-4-oxobutyl)-4-(4-methoxyphenyl)isoxazole-3-carboxamide], the IC50 [1] is reported as no more than 100 nM and the IC50 [2] is reported as 1000 to 10000 nM.
In the case of `COc1ccc(-c2c(C(=O)NCCCCCC(=O)NO)noc2-c2cc(Cl)c(O)cc2O)cc1` [Compound 8, 5-(5-chloro-2,4-dihydroxyphenyl)-N-(6-(hydroxylamino)-6-oxohexyl)-4-(4-methoxyphenyl)isoxazole-3-carboxamide], the IC50 [1] is reported as no more than 100 nM and the IC50 [2] is reported as 100 to 1000 nM.
`COc1ccc(-c2c(C(=O)NCCCCCCC(=O)NO)noc2-c2cc(Cl)c(O)cc2O)cc1` [Compound 9, 5-(5-chloro-2,4-dihydroxyphenyl)-N-(7-(hydroxylamino)-7-oxoheptyl)-4-(4-methoxyphenyl)isoxazole-3-carboxamide] showed an IC50 [1] of no more than 100 nM and an IC50 [2] of no more than 100 nM.
For `COc1ccc(-c2c(C(=O)NCCCCCCCC(=O)NO)noc2-c2cc(Cl)c(O)cc2O)cc1` [Compound 10, 5-(5-chloro-2,4-dihydroxyphenyl)-N-(8-(hydroxylamino)-8-oxooctyl)-4-(4-methoxyphenyl)isoxazole-3-carboxamide], the IC50 [1] was no more than 100 nM and the IC50 [2] was no more than 100 nM.
With `COc1ccc(-c2c(C(=O)N3CCN(c4ncc(C(=O)NO)cn4)CC3)noc2-c2cc(Cl)c(O)cc2O)cc1` [Compound 11, 2-(4-(5-(5-chloro-2,4-dihydroxyphenyl)-4-(4-methoxyphenyl)isoxazole-3-carbonyl)piperazin-1-yl)-N-hydroxypyrimidine-5-carboxamide] the IC50 [1] was 100 to 1000 nM, the IC50 [2] was no more than 100 nM and the melting point was 186 to 190 °C.
With `COc1ccc(-c2c(C(=O)NCC3CCN(c4ncc(C(=O)NO)cn4)CC3)noc2-c2cc(Cl)c(O)cc2O)cc1` [Compound 13, 5-(5-Chloro-2,4-dihydroxyphenyl)-N-((1-(5-(hydroxycarbamoyl)pyrimidin-2-yl)piperidin-4-yl)methyl)-4-(4-methoxyphenyl)isoxazole-3-carboxamide] the IC50 [1] was 100 to 1000 nM, the IC50 [2] was no more than 100 nM and the melting point was 148 to 151 °C.
`CCNC(=O)c1noc(-c2cc(C(C)C)c(O)cc2O)c1-c1ccc(CNCCC(=O)NO)cc1` [Compound 15, 5-(2,4-dihydroxy-5-isopropylphenyl)-N-ethyl-4-(4-((3-(hydroxyamino)-3-oxopro-pylamino)methyl)phenyl)isoxazole-3-carboxamide] gave an IC50 [1] of no more than 100 nM, an IC50 [2] of 1000 to 10000 nM and a melting point of 146 to 148 °C.
In the case of `CCNC(=O)c1noc(-c2cc(C(C)C)c(O)cc2O)c1-c1ccc(CN(C)CCC(=O)NO)cc1` [Compound 16, 5-(2,4-dihydroxy-5-isopropylphenyl)-N-ethyl-4-(4-(((3-(hydroxyamino)-3-oxopropyl)(methyl)amino)methyl)phenyl)isoxazole-3-carboxamide], the IC50 [1] is reported as no more than 100 nM, the IC50 [2] is reported as no less than 10000 nM and the melting point is reported as 120 to 122 °C.
Work on `CCNC(=O)c1noc(-c2cc(C(C)C)c(O)cc2O)c1-c1ccc(CN(C)CCCC(=O)NO)cc1` [Compound 18, 5-(2,4-dihydroxy-5-isopropylphenyl)-N-ethyl-4-(4-(((4-(hydroxyamino)-4-oxobutyl)(methyl)amino)methyl)phenyl)isoxazole-3-carboxamide] yielded an IC50 [1] of no more than 100 nM, an IC50 [2] of no less than 10000 nM and a melting point of 132 to 134 °C.
Work on `CCNC(=O)c1noc(-c2cc(C(C)C)c(O)cc2O)c1-c1ccc(CNCCCCCC(=O)NO)cc1` [Compound 21, 5-(2,4-Dihydroxy-5-isopropylphenyl)-N-ethyl-4-(4-((6-(hydroxyamino)-6-oxohexylamino)methyl)phenyl)isoxazole-3-carboxamide] yielded an IC50 [1] of no more than 100 nM, an IC50 [2] of 1000 to 10000 nM and a melting point of 134 to 135 °C.
Molecule `CCNC(=O)c1noc(-c2cc(C(C)C)c(O)cc2O)c1-c1ccc(CN(C)CCCCCC(=O)NO)cc1` [Compound 22, 5-(2,4-Dihydroxy-5-isopropylphenyl)-N-ethyl-4-(4-(((6-(hydroxyamino)-6-oxohexyl)(methyl)amino)methyl)phenyl)isoxazole-3-carboxamide] has an IC50 [1] of no more than 100 nM, an IC50 [2] of 1000 to 10000 nM and a melting point of 113 to 115 °C.
With `CCNC(=O)c1noc(-c2cc(C(C)C)c(O)cc2O)c1-c1ccc(CNCCCCCCC(=O)NO)cc1` [Compound 23, 5-(2,4-dihydroxy-5-isopropylphenyl)-N-ethyl-4-(4-((7-(hydroxyamino)-7-oxoheptylamino)methyl)phenyl)isoxazole-3-carboxamide] the IC50 [1] was no more than 100 nM, the IC50 [2] was 100 to 1000 nM and the melting point was 126 to 128 °C.
`CCNC(=O)c1noc(-c2cc(C(C)C)c(O)cc2O)c1-c1ccc(CN(C)CCCCCCC(=O)NO)cc1` [Compound 24, 5-(2,4-Dihydroxy-5-isopropylphenyl)-N-ethyl-4-(4-(((7-(hydroxyamino)-7-oxoheptyl)(methyl)amino)methyl)phenyl)isoxazole-3-carboxamide] showed an IC50 [1] of no more than 100 nM, an IC50 [2] of 100 to 1000 nM and a melting point of 118 to 119 °C.
For `CC(C)c1cc(-c2onc(C(=O)NCCCC(=O)NO)c2-c2ccc(CN3CCOCC3)cc2)c(O)cc1O` [Compound 25, 5-(2,4-Dihydroxy-5-isopropylphenyl)-N-(4-(hydroxyamino)-4-oxobutyl)-4-(4-(morpholinomethyl)phenyl)isoxazole-3-carboxamide], the IC50 [1] was no more than 100 nM and the melting point was 129 to 130 °C.
